From patent US10273226B2, “Pyrazolyl-heteroarylamides as pesticides” (Bayer Animal Health GmbH, priority 2014, dated 2019) come the findings set out here.

Common to all, as to format: in vivo
For experiment [1], the system named is Rhipicephalus sanguineus. Kind of experiment: Rhipicephalus sanguineus in vitro contact test with adult brown dog ticks. The settings on record: after 48 h, ticks dead or moribund. A digest of the protocol: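 Test tubes (25 ml) were coated by dissolving active ingredient in acetone p.a., diluting to the required concentration, and spreading 250 μl over the inner walls and base on an orbital shaker at 30 rpm for 2 h. Once dry, 5-10 adult Rhipicephalus sanguineus were added, and tubes were capped with perforated lids and kept horizontal in darkness at room temperature. At 48 h, ticks were knocked down and heated at 45-50° C. for up to 5 min. Those unable to climb away were counted dead or moribund, and efficacy ran from 0% to 100%.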

Experiment [2] deals with Boophilus microplus. Kind of experiment: Boophilus microplus injection test. The settings on record: application rate 20 μg/animal; injection into abdomen; assessed after 7 days. A digest of the protocol:
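Engorged adult female Boophilus microplus ticks (5 per dose) each received a 1 μl abdominal injection of compound in DMSO and were held in a climate-controlled room. Efficacy was scored after 7 days from fertile egg laying, with unclear eggs kept until hatching (~42 days); 100% means no fertile eggs.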

The subject of experiment [3] is Ctenocephalides felis. Kind of experiment: Ctenocephalides felis oral test. The settings on record: application rate 100 ppm in citrated cattle blood; after 2 days. A digest of the protocol:
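Percentage mortality recorded at 2 days, where 0% means no fleas killed. Compound dissolved in DMSO and diluted in citrated cattle blood, which roughly 20 unfed adult C. felis imbibe via a parafilm membrane.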

Experiment [4] concerns Lucilia cuprina. Kind of experiment: Lucilia cuprina test. The note with it: application rate 100 ppm; L1 larvae; after 2 days. The procedure, abridged:
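Mortality read at 2 days as percent larvae killed (100% = all, 0% = none). Test used roughly 20 first-instar larvae on minced horsemeat dosed with water-diluted DMSO formulation of compound.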

Experiment [5] relates to Myzus persicae. Kind of experiment: Myzus persicae spray test. The note with it: after 6 days. Here is the method: Myzus persicae—Spray Test
To produce an appropriate active ingredient formulation, 1 part by weight of active ingredient is dissolved using the specified parts by weight of solvent and made up with water containing an emulsifier concentration of 1000 ppm until the desired concentration is attained. To produce further test concentrations, the preparation is diluted with emulsifier-containing water.
Discs of Chinese cabbage leaves (Brassica pekinensis) infested by all stages of the green peach aphid (Myzus persicae) are sprayed with an active ingredient formulation of the desired concentration.
After 6 days, efficacy in % is determined. 100% means that all the aphids have been killed; 0% means that none of the aphids have been killed.

In experiment [6] the test system is Phaedon cochleariae. Kind of experiment: Phaedon cochleariae spray test. The settings on record: larvae, after 7 days. The procedure, abridged:
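Mortality of Phaedon larvae, in %, was read 7 days after release onto sprayed, dried Brassica pekinensis leaf discs. Test dilutions were prepared in water with 1000 ppm emulsifier. A score of 0% means no larvae died and 100% means all were killed.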

Experiment [7] deals with Spodoptera frugiperda. Kind of experiment: Spodoptera frugiperda spray test. The note with it: caterpillars, after 7 days. The procedure, abridged:
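Percent kill of armyworm caterpillars was scored 7 days after they were placed on dried, sprayed Zea mays leaf discs. Spray solutions were made by dissolving active ingredient in solvent and diluting with 1000 ppm emulsifier water.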

In experiment [8] the test system is Tetranychus urticae. Kind of experiment: Tetranychus urticae spray test, OP-resistant. The note with it: after 6 days. The procedure, abridged: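 Percent kill is assessed 6 days after spraying infested Phaseolus vulgaris leaf discs, with all mite stages present. Compound is applied as a solvent/emulsifier aqueous formulation at the desired concentration.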
Experiment [9] has as its system Ctenocephalides felis. Kind of experiment: Ctenocephalides felis in vitro contact test with adult cat fleas. The settings on record: application rate 5 μg/cm^2 (500 g/ha); after 48 h; fleas dead or moribund. Here is the method: Ctenocephalides felis—In Vitro Contact Tests with Adult Cat Fleas
For the coating of the test tubes, 9 mg of active ingredient are first dissolved in 1 ml of acetone p.a. and then diluted to the desired concentration with acetone p.a. 250 μl of the solution are distributed homogeneously on the inner walls and base of a 25 ml test tube by turning and rocking on an orbital shaker (rocking rotation at 30 rpm for 2 h). With 900 ppm active ingredient solution and internal surface 44.7 cm^2, given homogeneous distribution, an area-based dose of 5 μg/cm^2 is achieved.
After the solvent has evaporated off, the tubes are populated with 5-10 adult cat fleas (Ctenocephalides felis), sealed with a perforated plastic lid and incubated in a horizontal position at room temperature and ambient humidity. After 48 h, efficacy is determined. To this end, the test tubes are stood upright and the fleas are knocked to the base of the tube. Fleas which remain motionless at the base or move in an uncoordinated manner are considered to be dead or moribund.
100% efficacy means that all the fleas were dead or moribund. 0% efficacy means that no fleas were harmed.

Experiment [10] deals with Musca domestica. Kind of experiment: Musca domestica test. The note with it: application rate 100 ppm; adult houseflies; after 2 days. The method, then: Solvent: dimethyl sulphoxide
To produce an appropriate active ingredient formulation, 10 mg of active ingredient are mixed with 0.5 ml of dimethyl sulphoxide, and the concentrate is diluted with water to the desired concentration.
Vessels containing a sponge treated with sugar solution and the active ingredient formulation of the desired concentration are populated with 10 adult houseflies (Musca domestica).
After 2 days, the kill in % is determined. 100% means that all of the flies have been killed; 0% means that none of the flies have been killed.

The mark [11] stands for this setting: application rate 5 μg/cm^2 (500 g/ha).
[12] abbreviates: application rate 1 μg/cm^2 (100 g/ha).

Structures are written as SMILES.

Regarding `Cn1nc(C(F)(F)C(F)(F)F)c(C(F)(F)F)c1-n1cc(-c2cccc(NC(=O)C(F)(F)C(F)F)c2)cn1` [Example 1-009], the efficacy in [1] (setting [11]), in experiment [5] (application rate 100 g/ha), in experiment [6] (application rate 500 g/ha), in [7] (application rate 500 g/ha) and in experiment [8] (application rate 500 g/ha) was 100% in each case. In experiment [2], the “efficacy (laying of fertile eggs)” value is reported as 100%. The “efficacy (kill in %)” value in experiment [3] and in experiment [4] was 100% throughout.
As for `Cn1nc(C(F)(F)C(F)(F)F)c(C(F)(F)F)c1-n1cc(-c2cccc(NC(=O)c3ccccc3F)c2)cn1` [Example 1-012], the efficacy in experiment [9] is 100%; in experiment [1] (setting [11]), 100%; in [5] (application rate 100 g/ha), 90%; in experiment [6] (application rate 100 g/ha), 100%; in [7] (application rate 100 g/ha), 100%; in experiment [8] (application rate 100 g/ha), 100%. Besides, the “efficacy (laying of fertile eggs)” value in experiment [2] came to 100%. Moreover, the “efficacy (kill in %)” value in [3] and in experiment [4] was 100% throughout.
In the case of `Cn1nc(C(F)(F)C(F)(F)F)c(C(F)(F)F)c1-n1cc(-c2cccc(NC(=O)c3ccsc3)c2)cn1` [Example 1-016], the efficacy is 100% in [9]; 100% in experiment [1] (setting [11]); 90% in experiment [5] (application rate 500 g/ha); 100% in experiment [6] (application rate 500 g/ha); 100% in experiment [7] (application rate 500 g/ha); 100% in experiment [8] (application rate 500 g/ha). For the same molecule, in experiment [2], the “efficacy (laying of fertile eggs)” value was 100%. In addition, the “efficacy (kill in %)” value in experiment [3] and in experiment [4] was 100% throughout.
For the molecule `Cn1nc(C(F)(F)C(F)(F)F)c(C(F)(F)F)c1-n1cc(-c2cccc(NC(=O)c3cccs3)c2)cn1` [Example 1-017], the efficacy in experiment [1] (setting [11]) is on record as 100%; in [5] (application rate 100 g/ha), 90%; in [6] (application rate 100 g/ha), 100%; in experiment [7] (application rate 100 g/ha), 100%; in [8] (application rate 100 g/ha) it was 100%. In addition, the “efficacy (laying of fertile eggs)” value in experiment [2] came out at 100%. Also, the “efficacy (kill in %)” value in experiment [3] and in experiment [4] was 100% throughout.
On to `Cn1cc(C(=O)Nc2cccc(-c3cnn(-c4c(C(F)(F)F)c(C(F)(F)C(F)(F)F)nn4C)c3)c2)cn1` [Example 1-019], for which the “efficacy (laying of fertile eggs)” value in experiment [2] stood at 100%. The “efficacy (kill in %)” value in experiment [3], in [4] and in [10] was 100% throughout. In addition, the efficacy in experiment [5] (application rate 100 g/ha) came out at 90%; in experiment [6] (application rate 100 g/ha), 100%; in experiment [7] (application rate 100 g/ha) it was 100%; in [8] (application rate 100 g/ha) it was 100%.
Consider `Cn1nc(C(F)(F)C(F)(F)F)c(C(F)(F)F)c1-n1cc(-c2ccc(F)c(NC(=O)C(F)(F)C(F)F)c2)cn1` [Example 1-033], for which the efficacy is recorded as 100% in experiment [1] (setting [12]), 90% in experiment [5] (application rate 100 g/ha), 83% in experiment [6] (application rate 100 g/ha) and 100% in [8] (application rate 100 g/ha). The “efficacy (laying of fertile eggs)” value in experiment [2] is 100%. Further, the “efficacy (kill in %)” value in experiment [3] and in [4] was 100% each time.
Regarding `COCC(=O)Nc1cc(-c2cnn(-c3c(C(F)(F)F)c(C(F)(F)C(F)(F)F)nn3C)c2)ccc1F` [Example 1-048], the figures for the efficacy in experiment [1] (setting [11]), in experiment [5] (application rate 100 g/ha) and in [8] (application rate 100 g/ha) were 100%, 90% and 100%, respectively. Moreover, in experiment [2], the “efficacy (laying of fertile eggs)” value came out at 100%. Also, the “efficacy (kill in %)” value in experiment [3] and in experiment [4] was 95% in each case.
For the molecule `CC(C)C(=O)Nc1cc(-c2cnn(-c3c(C(F)(F)F)c(C(F)(F)C(F)(F)F)nn3C)c2)ccc1F` [Example 1-064], the efficacy in experiment [9], in experiment [1] (setting [11]), in [5] (application rate 100 g/ha), in [6] (application rate 100 g/ha), in experiment [7] (application rate 100 g/ha) and in experiment [8] (application rate 100 g/ha) was 100% throughout. The “efficacy (laying of fertile eggs)” value in [2] worked out at 100%. Also, the “efficacy (kill in %)” value in experiment [3] and in experiment [4] was 100% throughout.
Turning to `CCC(=O)Nc1cc(-c2cnn(-c3c(C(F)(F)F)c(C(F)(F)C(F)(F)F)nn3C)c2)ccc1F` [Example 1-076], the efficacy amounted to 100% in [9]; 100% in experiment [1] (setting [11]); 100% in experiment [5] (application rate 100 g/ha); 100% in experiment [6] (application rate 100 g/ha); 100% in [7] (application rate 100 g/ha); 90% in [8] (application rate 100 g/ha). Besides, the “efficacy (laying of fertile eggs)” value in experiment [2] is reported as 100%. Moreover, the “efficacy (kill in %)” value in [3] was found to be 100%; in experiment [4] it was 95%.
Turning to `Cc1oncc1C(=O)Nc1cc(-c2cnn(-c3c(C(F)(F)F)c(C(F)(F)C(F)(F)F)nn3C)c2)ccc1F` [Example 1-081], the efficacy in experiment [9], in experiment [1] (setting [11]), in [5] (application rate 100 g/ha), in [6] (application rate 100 g/ha), in experiment [7] (application rate 100 g/ha) and in [8] (application rate 100 g/ha) was 100% each time. For the same molecule, the “efficacy (laying of fertile eggs)” value in experiment [2] was 100%. The “efficacy (kill in %)” value in experiment [3] and in experiment [4] was 100% throughout.
As to `Cn1nc(C(F)(F)C(F)(F)F)c(C(F)(F)F)c1-n1cc(-c2ccc(F)c(NC(=O)c3ccc(Cl)c(F)c3)c2)cn1` [Example 1-096], the efficacy in experiment [9], in [1] (setting [11]), in experiment [6] (application rate 100 g/ha), in experiment [7] (application rate 100 g/ha) and in experiment [8] (application rate 100 g/ha) was 100% each time. Moreover, the “efficacy (laying of fertile eggs)” value in experiment [2] is 100%. In addition, the “efficacy (kill in %)” value in experiment [3] is listed as 100%; in [4], 100%; in experiment [10] it was 90%.
With `Cn1nc(C(F)(F)C(F)(F)F)c(C(F)(F)F)c1-n1cc(-c2cnc(F)c(NC(=O)c3ccncc3)c2)cn1` [Example 2-005], the efficacy was 100% in [9]; 80% in [1] (setting [12]); 100% in experiment [6] (application rate 100 g/ha); 100% in experiment [7] (application rate 100 g/ha); 100% in [8] (application rate 20 g/ha). Further, the “efficacy (laying of fertile eggs)” value in [2] is 100%. In addition, the “efficacy (kill in %)” value is reported as 100% in experiment [3], 100% in [4] and 90% in experiment [10].
For `Cn1nc(C(F)(F)C(F)(F)F)c(C(F)(F)F)c1-n1cc(-c2cnc(Cl)c(NC(=O)c3ccncc3)c2)cn1` [Example 2-006], the efficacy stood at 100% in experiment [9]; 80% in experiment [1] (setting [11]); 100% in [6] (application rate 100 g/ha); 100% in [7] (application rate 100 g/ha); 100% in experiment [8] (application rate 100 g/ha). The “efficacy (laying of fertile eggs)” value in experiment [2] is listed as 100%. Besides, the figures for the “efficacy (kill in %)” value in experiment [3], in experiment [4] and in experiment [10] were 100%, 100% and 90%, respectively.
